Data: patent US10604739B2, “Cardiomyocyte production” (Cellular Dynamics International, Inc., priority 2009, dated 2020)

What was measured:
Assay type in all cases: cell-based, human
iPS cells [1] = assay: H1152 duration and aggregate formation, Experiment 1: cardiomyocyte differentiation; set-up: Average Cardiomyocyte Yield: unit not given here; conditions: for Average # cTnT Cells/Liter (in millions) / Average % Troponin T+ / Average Cardiomyocyte Yield / Average Cell Count per flask (in millions) / Average ratio iPS to CM: day 14, T25
Procedure: (§1) The purpose of this Example was to see the effect of 1 day or 2 day treatment with the compound on Cardiomyocyte development. Initial testing with H1152 included the compound in the media: 1 μM on day one with the TeSR media and 0.5 μM on day 2 with the compound in the aggregate transition media. After adopting a new method which included the H1152 compound for 1 day at 1 μM only, there appeared to be a loss of efficiency with the initial cell survival, resulting in this study to determine if extended H1152 would increase cell survival without a negative impact on […]. Cardiomyocyte differentiation conditions and experimental parameters were summarized in Tables 11-12 and 13-14 for Experiments 1 and 2, respectively. Critical reagents and materials were obtained as described in the previous example.

iPS cells [2] = assay: H1152 duration and aggregate formation, Experiment 2: cardiomyocyte differentiation; set-up: Average Cardiomyocyte Yield: unit not given here; conditions: for Average # cTnT Cells/Liter (in millions) / Average % Troponin T+ / Average Cardiomyocyte Yield / Average Cell Count per flask (in millions) / Average ratio iPS to CM: day 14, T25
Procedure: as §1

IPS 6.1 cells = assay: Effect of different concentrations of H1152 on cell survival; conditions: one day dose, FIG. 28
Procedure: FIG. 28: Effect of different concentrations of H1152 on cell survival with one day dose of H1152 on IPS 6.1 cells.
Effect of different concentrations of H1152 was also tested on cell survival with one day dose of H1152 on IPS 6.1 cells (FIG. 28).

[3] = 3e5 cells/ml seeding, H1152 1 μM 24 hour exposure
[4] = 3e5 cells/ml seeding, H1152 1 μM 48 hour exposure
[5] = 5e5 cells/ml seeding, H1152 1 μM 24 hour exposure
[6] = 5e5 cells/ml seeding, H1152 1 μM 48 hour exposure
[7] = 7e5 cells/ml seeding, H1152 1 μM 24 hour exposure
[8] = 7e5 cells/ml seeding, H1152 1 μM 48 hour exposure
[9] = 10e5 cells/ml seeding, H1152 1 μM 24 hour exposure
[10] = 10e5 cells/ml seeding, H1152 1 μM 48 hour exposure
[11] = 15e5 cells/ml seeding, H1152 1 μM 24 hour exposure
[12] = 15e5 cells/ml seeding, H1152 1 μM 48 hour exposure

For Cc1cncc2cccc(S(=O)(=O)N3CCCNC[C@@H]3C)c12 [H1152], the “Average # cTnT Cells/Liter (in millions)” value (iPS cells [1]; [3]) was 2.91 ± 1.27 millions, the “Average % Troponin T+” value (iPS cells [1]; [3]) was 6.83 ± 0.26% and the “Average Cardiomyocyte Yield” value (iPS cells [1]; [3]) was 17445 ± 7677. For the same compound, the “Average Cell Count per flask (in millions)” value (“Average Cell Count per flask” for short) (iPS cells [1]; [3]) was 0.25 ± 0.11 millions, the “Average ratio iPS to CM” value (iPS cells [1]; [3]) was 99 ± 45 and the “Average # cTnT Cells/Liter (in millions)” value (iPS cells [1]; [4]) was 9.92 ± 0.25 millions. For the same compound, the “Average % Troponin T+” value (iPS cells [1]; [4]) was 4.40 ± 1.00%, the “Average Cardiomyocyte Yield” value (iPS cells [1]; [4]) was 59575 ± 1514 and the “Average Cell Count per flask” value (iPS cells [1]; [4]) was 1.39 ± 0.28 millions. The “Average ratio iPS to CM” value (iPS cells [1]; [4]) was 25 ± 1, the “Average # cTnT Cells/Liter (in millions)” value (iPS cells [1]; [5]) was 3.02 ± 1.66 millions and the “Average % Troponin T+” value (iPS cells [1]; [5]) was 6.26 ± 3.40%. The “Average Cardiomyocyte Yield” value (iPS cells [1]; [5]) was 18123 ± 10004, the “Average Cell Count per flask” value (iPS cells [1]; [5]) was 0.46 ± 0.48 millions and the “Average ratio iPS to CM” value (iPS cells [1]; [5]) was 180 ± 119. The “Average # cTnT Cells/Liter (in millions)” value (iPS cells [1]; [6]) was 19.52 ± 8.01 millions, the “Average % Troponin T+” value (iPS cells [1]; [6]) was 3.37 ± 1.12% and the “Average Cardiomyocyte Yield” value (iPS cells [1]; [6]) was 117137 ± 48094. For the same compound, the “Average Cell Count per flask” value (iPS cells [1]; [6]) was 3.41 ± 0.47 millions, the “Average ratio iPS to CM” value (iPS cells [1]; [6]) was 24 ± 11 and the “Average # cTnT Cells/Liter (in millions)” value (iPS cells [1]; [7]) was 6.54 ± 0.91 millions. The “Average % Troponin T+” value (iPS cells [1]; [7]) was 5.41 ± 1.58%, the “Average Cardiomyocyte Yield” value (iPS cells [1]; [7]) was 39272 ± 5494 and the “Average Cell Count per flask” value (iPS cells [1]; [7]) was 0.77 ± 0.29 millions. The “Average ratio iPS to CM” value (iPS cells [1]; [7]) was 90 ± 12, the “Average # cTnT Cells/Liter (in millions)” value (iPS cells [1]; [8]) was 11.71 ± 6.74 millions and the “Average % Troponin T+” value (iPS cells [1]; [8]) was 2.23 ± 0.28%. For the same compound, the “Average Cardiomyocyte Yield” value (iPS cells [1]; [8]) was 70299 ± 40479, the “Average Cell Count per flask” value (iPS cells [1]; [8]) was 3.19 ± 1.81 millions and the “Average ratio iPS to CM” value (iPS cells [1]; [8]) was 72 ± 58. The “Average # cTnT Cells/Liter (in millions)” value (iPS cells [1]; [9]) was 8.53 ± 3.67 millions, the “Average % Troponin T+” value (iPS cells [1]; [9]) was 3.29 ± 2.73% and the “Average Cardiomyocyte Yield” value (iPS cells [1]; [9]) was 51174 ± 22025. The “Average Cell Count per flask” value (iPS cells [1]; [9]) was 1.95 ± 0.91 millions, the “Average ratio iPS to CM” value (iPS cells [1]; [9]) was 116 ± 66 and the “Average # cTnT Cells/Liter (in millions)” value (iPS cells [1]; [10]) was 37.33 ± 11.90 millions. The “Average % Troponin T+” value (iPS cells [1]; [10]) was 4.70 ± 1.08%, the “Average Cardiomyocyte Yield” value (iPS cells [1]; [10]) was 224015 ± 71410 and the “Average Cell Count per flask” value (iPS cells [1]; [10]) was 4.69 ± 0.64 millions. For the same compound, the “Average ratio iPS to CM” value (iPS cells [1]; [10]) was 24 ± 9, the “Average # cTnT Cells/Liter (in millions)” value (iPS cells [1]; [11]) was 13.35 ± 5.17 millions and the “Average % Troponin T+” value (iPS cells [1]; [11]) was 2.05 ± 0.89%. For the same compound, the “Average Cardiomyocyte Yield” value (iPS cells [1]; [11]) was 80131 ± 31034, the “Average Cell Count per flask” value (iPS cells [1]; [11]) was 4.01 ± 0.46 millions and the “Average ratio iPS to CM” value (iPS cells [1]; [11]) was 105 ± 43. The “Average # cTnT Cells/Liter (in millions)” value (iPS cells [1]; [12]) was 49.87 ± 21.23 millions, the “Average % Troponin T+” value (iPS cells [1]; [12]) was 4.84 ± 1.61% and the “Average Cardiomyocyte Yield” value (iPS cells [1]; [12]) was 299246 ± 127411. The “Average Cell Count per flask” value (iPS cells [1]; [12]) was 6.16 ± 1.31 millions, the “Average ratio iPS to CM” value (iPS cells [1]; [12]) was 28 ± 10 and the “Effect of increasing H1152 exposure duration to 48 hours on cTnT yield” value (iPS cells [1]; Experiment 1, each cell density condition, 14 days) was “increased cTnT yield in each cell density condition”. For the same compound, the Cell survival (iPS cells [1]; two day treatment at 1 μM, each of the experiments) was “significant increase in the cell survival”, the “Average # cTnT Cells/Liter (in millions)” value (iPS cells [2]; [3]) was 11.06 ± 9.07 millions and the “Average % Troponin T+” value (iPS cells [2]; [3]) was 12.71 ± 1.72%. The “Average Cardiomyocyte Yield” value (iPS cells [2]; [3]) was 66383 ± 54471, the “Average Cell Count per flask” value (iPS cells [2]; [3]) was 0.57 ± 0.54 millions and the “Average ratio iPS to CM” value (iPS cells [2]; [3]) was 33 ± 20. The “Average # cTnT Cells/Liter (in millions)” value (iPS cells [2]; [4]) was 34.67 ± 15.81 millions, the “Average % Troponin T+” value (iPS cells [2]; [4]) was 7.99 ± 2.24% and the “Average Cardiomyocyte Yield” value (iPS cells [2]; [4]) was 208066 ± 94874. The “Average Cell Count per flask” value (iPS cells [2]; [4]) was 2.52 ± 0.51 millions, the “Average ratio iPS to CM” value (iPS cells [2]; [4]) was 8 ± 4 and the “Average # cTnT Cells/Liter (in millions)” value (iPS cells [2]; [5]) was 8.84 ± 6.01 millions. The “Average % Troponin T+” value (iPS cells [2]; [5]) was 9.98 ± 2.40%, the “Average Cardiomyocyte Yield” value (iPS cells [2]; [5]) was 53055 ± 36109 and the “Average Cell Count per flask” value (iPS cells [2]; [5]) was 0.52 ± 0.35 millions. For the same compound, the “Average ratio iPS to CM” value (iPS cells [2]; [5]) was 67 ± 49, the “Average # cTnT Cells/Liter (in millions)” value (iPS cells [2]; [6]) was 38.40 ± 23.14 millions and the “Average % Troponin T+” value (iPS cells [2]; [6]) was 5.20 ± 3.33%. For the same compound, the “Average Cardiomyocyte Yield” value (iPS cells [2]; [6]) was 230454 ± 138874, the “Average Cell Count per flask” value (iPS cells [2]; [6]) was 4.56 ± 0.48 millions and the “Average ratio iPS to CM” value (iPS cells [2]; [6]) was 14 ± 7. For the same compound, the “Average # cTnT Cells/Liter (in millions)” value (iPS cells [2]; [9]) was 14.18 ± 7.34 millions, the “Average % Troponin T+” value (iPS cells [2]; [9]) was 5.42 ± 1.08% and the “Average Cardiomyocyte Yield” value (iPS cells [2]; [9]) was 85129 ± 44092. The “Average Cell Count per flask” value (iPS cells [2]; [9]) was 1.54 ± 063 millions, the “Average ratio iPS to CM” value (iPS cells [2]; [9]) was 72 ± 42 and the “Average # cTnT Cells/Liter (in millions)” value (iPS cells [2]; [10]) was 16.03 ± 13.63 millions. The “Average % Troponin T+” value (iPS cells [2]; [10]) was 1.40 ± 1.45%, the “Average Cardiomyocyte Yield” value (iPS cells [2]; [10]) was 96206 ± 81824 and the “Average Cell Count per flask” value (iPS cells [2]; [10]) was 7.84 ± 1.14 millions. For the same compound, the “Average ratio iPS to CM” value (iPS cells [2]; [10]) was 77 ± 44, the “Average # cTnT Cells/Liter (in millions)” value (iPS cells [2]; [11]) was 28.54 ± 10.83 millions and the “Average % Troponin T+” value (iPS cells [2]; [11]) was 6.48 ± 2.42%. For the same compound, the “Average Cardiomyocyte Yield” value (iPS cells [2]; [11]) was 171264 ± 65034, the “Average Cell Count per flask” value (iPS cells [2]; [11]) was 2.63 ± 0.14 millions and the “Average ratio iPS to CM” value (iPS cells [2]; [11]) was 48 ± 17. For the same compound, the “Average # cTnT Cells/Liter (in millions)” value (iPS cells [2]; [12]) was 28.13 ± 30.17 millions, the “Average % Troponin T+” value (iPS cells [2]; [12]) was 2.36 ± 2.03% and the “Average Cardiomyocyte Yield” value (iPS cells [2]; [12]) was 168815 ± 181030. For the same compound, the “Average Cell Count per flask” value (iPS cells [2]; [12]) was 6.16 ± 1.31 millions, the “Average ratio iPS to CM” value (iPS cells [2]; [12]) was 97 ± 85 and the “Effect of increasing H1152 exposure duration to 48 hours on cTnT yield” value (iPS cells [2]; Experiment 2, cultures initially seeded with 3e5 and 5e5 cells/mL, 14 days) was “increased cTnT yield in the cultures initially seeded with 3e5 and 5e5 cells/mL”. For the same compound, the “Optimal concentration for aggregate formation” value (IPS 6.1 cells) was 1 µM.
